Data published in patent publication US10273241B2 (President and Fellows of Harvard College, priority 2013, dated 2019).
Like-named read-outs stand apart in the source and are kept apart here.

Assays:
MV4;11 = test: Cell growth assay, MV4;11 AML cell line; assay type: cell-based, human
Protocol: (§1) For all other cell lines, compounds were serially diluted in medium and dispensed in triplicate in 96-well plates (0.1% DMSO final for assay) followed by the addition of exponentially growing cells at densities ranging from 5,000 to 30,000 cells/well. Cells were also seeded into 2 additional control wells containing vehicle (0.1% DMSO). […] To determine the estimated cell number in each well, cells that were counted in the control well were diluted 3-fold for an 8-point dilution series, and transferred to 384-well plates in duplicate, 20 μL per well. Cells in all other wells were diluted 4-fold and transferred to 384-well plates in duplicate, 20 μL per well. 20 μL of CellTiter-Glo (Promega) was subsequently added to all wells and luminescence was detected using a SPECTRAmax M3. The control well dilution series was fit to a linear regression and used as a standard for calculating the estimated cell number for each well. For days 7 and 10, total estimated cell number represents the split-adjusted theoretical cell number.

MOLM-14 = test: Cell growth assay, MOLM-14 AML cell line; assay type: cell-based, human
Protocol: as §1

K562 = test: Cell growth assay, K562 cell line; assay type: cell-based, human; conditions: day 10, lack of activity is taken as evidence of on-target selectivity
Protocol: (§2) For all other cell lines, compounds were serially diluted in medium and dispensed in triplicate in 96-well plates (0.1% DMSO final for assay) followed by the addition of exponentially growing cells at densities ranging from 5,000 to 30,000 cells/well. Cells were also seeded into 2 additional control wells containing vehicle (0.1% DMSO). After 3 days, the number of viable cells in one of the control wells was counted by hemocytometer or MOXI Z (Orflo) and an equal volume of cells for all wells were split-back with fresh vehicle/compounds such that the resulting seeding density for the control well was 5,000-30,000 cells/well, matching the initial seeding density in that well. This procedure was repeated on day 7 and day 10. % growth was calculated as % growth=100×(total estimated cell number in well−day 0 starting cell number)/(total average vehicle estimated cell number−day 0 starting cell number). To determine the estimated cell number in each well, cells that were counted in the control well were diluted 3-fold for an 8-point dilution series, and transferred to 384-well plates in duplicate, 20 μL per well. Cells in all other wells were diluted 4-fold and transferred to 384-well plates in duplicate, 20 μL per well. 20 μL of CellTiter-Glo (Promega) was subsequently added to all wells and luminescence was detected using a SPECTRAmax M3. The control well dilution series was fit to a linear regression and used as a standard for calculating the estimated cell number for each well. For days 7 and 10, total estimated cell number represents the split-adjusted theoretical cell number.

AML cells = test: Comparison with cortistatin A: AML cell growth inhibition and CDK8 kinase inhibition; assay type: cell-based, human; conditions: more potent than cortistatin A
Protocol: as §2, with “The control well dilution series was fit to a linear regression and used as a standard for calculating the estimated cell number for each well. For days 7 and 10, total estimated cell number represents the split-adjusted theoretical cell number.” left out

[1] = Liver microsome assay, metabolite formation; assay type: in vitro ADME, human; conditions: metabolite is compound 24B
[2] = Liver microsome metabolic stability assay; assay type: in vitro ADME; conditions: 1 micromolar, 0.5 mg/ml microsomal protein
Protocol: Test compounds were incubated at 37° C. with liver microsomes pooled from multiple donors at 1 micromolar in the presence of a NADPII regenerating system at 0.5 mg/ml microsomal protein. At 0, 5, 10, 20, 30, and 60 minutes, samples were removed, and mixed with cold acetonitrile containing an internal standard. After protein separation, samples were analyzed by LC/MS/MS for disappearance of the test compound using the ratio of peak area of analyte to internal standard. From the values, the microsome clearance was calculated. Species used were human, Sprague Dawley rat, beagle dog, and CD-1 mouse.

[3] = Human hepatocyte stability assay; assay type: in vitro ADME; conditions: 1 μM
Protocol: Test compounds were incubated in duplicate with cryopreserved hepatocytes at 37° C. The cells were thawed; viable cells counted, and equilibrated according to the supplier's directions. After 30 min equilibration at 37° C. with gentle agitation, the test compounds were added into the cells to give the desired final concentration of 1 μM. The cell suspension was incubated at 37° C. as above. At the indicated times, samples were removed and mixed with an equal volume of ice-cold Stop Solution (acetonitrile containing internal standards). Stopped reactions were incubated at least ten minutes on ice, and an additional volume of water was added. The samples were centrifuged to remove precipitated protein, and the supernatants were analyzed by LC/MS/MS to quantitate the remaining parent. Data were converted to % remaining by dividing by the time zero concentration value. Data were fit to a first-order decay model to determine half-life. From a plot of log (ln) peak area against time, the slope of the line was determined. Subsequently, half-life and intrinsic clearance were calculated using the equations below: Elimination rate constant (k)=(−slope); Half-life (T1/2) min=0.693/k; Intrinsic Clearance (CLint) (ml/min/million cells)=(V×0.693)/T1/2; V=incubation volume ml/number of cells.

[4] = Pharmacokinetic study of cortistatin A in CD-1 mice; assay type: in vivo, CD-1 mice; conditions: for Cmax: mouse, in vivo, ip
Wnt/beta-catenin pathway = test: Wnt/beta-catenin reporter assay (SuperTOPflash luciferase, HEK293STF); assay type: cell-based; conditions: 24 hour treatment with Wnt3A or 10 μM azakenpaullone; read-out: IC50, inhibition of luciferase expression
Protocol: Exponentially growing HEK293STF were plated in triplicate in 96-well plates at a density of 5,000 cells/well in 75 μL. […] Additional triplicate control wells on each plate had media without cells or cells without azakenpaullone. For experiments with Wnt3A conditioned media, after 24 h, compounds were serially diluted in Wnt3A conditioned media as 1× solutions (0.1% DMSO final). Old media was removed from the cells and replaced with the compound/Wnt3A-media. Additional triplicate control wells on each plate had media without cells or cells that were treated with L-conditioned media (no Wnt3A). After 24 h, the CellTiter-Fluor and Steady-Glo assays (Promega) were subsequently performed in series to determine viability and luminescence, respectively, in each well (measurements made on a SPECTRAmax M3, Molecular Devices). Graphs were made in Prism 5 (GraphPad Software, Inc.) with nonlinear regression fit to a sigmoidal dose-response curve (variable slope).

[5] = tested on: SET-2 subcutaneous xenograft; test: SET-2 subcutaneous xenograft model; assay type: in vivo, SCID Beige mice; conditions: 0.16 mg kg-1 daily, n=10, P<0.001
Protocol: (§3) Efficacy studies using the MV4;11 xenograft model were performed as previously described. See, e.g., Etchin et al., Leukemia (2013) 27, 66-74. Briefly, 2 million MV4;11 mCLP cells were introduced into 7-week-old female NOD-SCID-IL2Rcγ^null (NSG) mice (The Jackson Laboratory) via tail vein injection. The tumor burden was assessed by bioluminescence imaging (BLI) using an IVIS Spectrum system (Caliper Life Sciences). […] At 30 days post-treatment start date, 3 mice per group were sacrificed and blood counts were obtained using Hemavet 950 F instrument (Drew Scientific) and spleen, femur, and peripheral blood cells were collected and analyzed by flow cytometry (LSR Fortessa, BD Biosciences). The mice and a portion of the spleen were also preserved in bouins for histopathology. Mice were sectioned, paraffin-embedded and stained with hematoxylin and eosin. Survival of the drug-treated mice was measured as the time from initiation of therapy until moribund state. Survival benefit was assessed by Kaplan-Meier analysis. […] 2 h after the last dose, the mice were sacrificed, blood counts were obtained, blood chemistry was analyzed and the mice were fixed with bouins for histopathology. […] Once tumors reached an average size of 80-120 mm^3, the mice were treated with vehicle or 0.16 mg kg^−1 daily for the duration of the study.

MV4;11 AML cells = test: MV4;11 disseminated leukemia mouse model of AML; assay type: in vivo, NOD-SCID-IL2Rcγnull (NSG) mice; conditions: 0.05 and 0.16 mg/kg once daily for 15 days
Protocol: as §3

[6] = tested on: MPLW515L-transduced bone marrow; test: Murine model of primary myelofibrosis (MPLW515L); assay type: in vivo, mice
[7] = Safety testing in healthy CD-1 mice; assay type: in vivo; conditions: 0.16 mg kg-1 once daily for 15 days, 2 hours after last dose
Protocol: as §3

[8] = tested on: STAT1 pS727 (CDK8 module kinase activity) in HepG2 cells; test: IFN-γ-stimulated STAT1 S727 phosphorylation, western blot; assay type: cell-based, human; conditions: 1 hour compound then 1 hour IFN-γ; STAT1 pY701 and total STAT1 unaltered
Protocol: CDK8 has been reported to […] interferon gamma-stimulated phosphorylation of STAT1 S727. See, e.g., Bancerek et al., Immunity (2013) 38:250-262. […] The cells were lysed and probed by western blot.
(§4) For STAT1 studies, MOLM-14 cells were treated with vehicle (0.1% DMSO) or compound for 1 h followed by the addition of IFNγ (Life Technologies, PHC4031) for 1 h. Cells were then collected, washed twice with cold PBS and snap frozen in liquid nitrogen. For all Western blotting, whole-cell lysates were prepared in RPA buffer (Sigma-Aldrich, R0278) with phosphatase and protease inhibitor additives (Sigma-Aldrich, P8340, P0044, P5762) and protein concentration was determined by BCA assay (Thermo Scientific, 23225). RIPA extracts were resolved by denaturing polyacrylamide gel electrophoresis (Life Technologies, NuPAGE) and transferred to PVDF membrane (Millipore) using the Mini Trans-Blot system (BioRad). The membranes were probed as recommended by the antibody manufacturers and proteins detected by chemiluminescence using horseradish peroxidase-conjugated secondary antibodies. For SMAD2/3 studies, HaCaT cells were treated as described for STAT1 with the addition of TGFβ1 (R&D Systems) in place of IFNγ.

[9] = tested on: SMAD2/3 phosphorylation in HaCat cells; test: TGF-beta-stimulated SMAD2/3 phosphorylation, western blot; assay type: cell-based; conditions: 1 hour compound then 1 hour TGF-beta
Protocol: as §4

BCL2L11 expression = test: BCL2L11 mRNA levels in MV4;11 and MOLM-14 cells; assay type: cell-based, human; conditions: 24 h treatment
[10] = Homo sapiens, MV4-11, 240 h, day 10, cells passaged, fresh compound added on days 3 and 7, read-out: MV 4;11 GI50 day 10
[11] = Homo sapiens, MOLM-14, 240 h, day 10, cells passaged, fresh compound added on days 3 and 7, read-out: MOL M14 G150 day 10

CN(C)[C@H]1CCC2=CC3=CC[C@]4(C)[C@@H](c5ccc6ccncc6c5)CC[C@H]4C34CC[C@]2(C1)O4 [14B, β-dimethylamine]
GI50 (MV4;11; [10]): 4 nM | GI50 (MV4;11; Homo sapiens, MV4-11, day 7, fresh compound added on day 3, read-out: MV4;11 GI50 day 7): 8 nM | GI50 (MOLM-14; [11]): 3 nM | GI50 (MOLM-14; Homo sapiens, MOLM-14, day 7, fresh compound added on day 3, read-out: MOL M14 GI50 day 7): 7 nM | GI50 (K562; Homo sapiens, K562, 240 h): > 1000 nM | potency relative to cortistatin A in cell growth inhibition and in CDK8 kinase inhibition (AML cells): approximately 2 fold | metabolism in human liver microsomes [1]: undergoes N-monodemethylation at C3

C[C@]12CC=C3C=C4CC[C@H]([N+](C)(C)[O-])CC45CC[C@]3(O5)[C@@H]1CC[C@@H]2c1ccc2ccncc2c1 [14BNO, 14B-N-Oxide]
GI50 (MV4;11; [10]): 1 nM | GI50 (MOLM-14; [11]): 2 nM | GI50 (K562; Homo sapiens, K562, 240 h): > 1000 nM | metabolic stability in liver microsomes compared with 14B [2]: increased stability | metabolic stability in liver microsomes compared with 14B ([2]; listed as N-oxide of compound 14B): improved stability | half-life and clearance rate in hepatocytes [3]: acceptable half-life and clearance rate

cortistatin A [CA]
GI50 (MV4;11; day 7, fresh compound added on day 3, read-out: MV4;11 GI50 day 7): 9 nM | GI50 (MV4;11; day 10, cells passaged, fresh compound added on days 3 and 7, read-out: MV 4;11 GI50 day 10): 4 nM | GI50 (MOLM-14; day 7, fresh compound added on day 3, read-out: MOL M14 GI50 day 7): 9 nM | GI50 (MOLM-14; day 10, cells passaged, fresh compound added on days 3 and 7, read-out: MOL M14 G150 day 10): 5 nM | GI50 (K562): > 1000 nM | calculated T1/2 ([4]; 10 mg/kg IP in 10% DMSO/phosphate buffered saline pH6, male CD-1 mice): 6.06 h | Cmax ([4]; 1 mg/kg): 762 nM | Cmax ([4]; 10 mg/kg, pH 6): 1400 nM | calculated T1/2 between 0.5-2 h ([4]; single IP injection 1 mg/kg in 20% HPCD, male CD-1 mice): 0.55 h | IC50 (Wnt/beta-catenin pathway): 1.5 nM | tumor growth inhibition [5]: 68% | efficacy (bioluminescence, survival, spleen and bone marrow burden) (MV4;11 AML cells): effective | mean body weight (MV4;11 AML cells; n=11): did not decrease | spleen weights ([6]; 0.31 mg/kg and 0.62 mg/kg i.p. once daily, after 6 doses): significant reduction | allele burden (GFP percentage in peripheral blood) ([6]; after 4 doses of daily treatment): significant reduction | complete blood count (CBC) vs vehicle [7]: no significant differences | inhibition of IFN-γ-stimulated increase in STAT1 pS727 [8]: potently inhibited | TGF-beta-stimulated SMAD2/3 phosphorylation [9]: dose-dependently inhibited | mRNA levels of BCL2L11 (BCL2L11 expression): dose-dependently increases
